Values after ≈ are worked out from the molar mass of the structure shown.
Experiments:
[1] = Metabolic stability with human liver microsomes; type: in vitro ADME; details: pooled human liver microsomes, 37° C., 1 mg/ml protein, NADPH
Description: Assay for the Determination of Metabolic Stability with Human Liver Microsomes
The metabolic degradation of the test compound is assayed at 37° C. with pooled human liver microsomes. The final incubation volume of […] per time point contains TRIS buffer pH 7.6 (0.1 M), magnesium chloride (5 mM), microsomal protein (1 mg/ml) and the test compound at a final concentration of […]. Following a short preincubation period at 37° C., the reactions are initiated by addition of beta-nicotinamide adenine dinucleotide phosphate, reduced form (NADPH, 1 mM) and terminated by transfering an aliquot into acetonitrile after different time points. Additionally, the NADPH-independent degradation is monitored in incubations without NADPH, terminated at the last time point. The rol remaining test compound after NADPH independent incubation is reflected by the parameter c(control) (metabolic stability). The quenched incubations are pelleted by centrifugation (10′000 g, 5 min) An aliquot of the supernatant is assayed by LC-MS/MS for the amount of parent compound.
The half-life (t1/2 INVITRO) is determined by the slope of the semilogarithmic plot of the concentration-time profile. The intrinsic clearance (CL_[…]) is calculated by considering the amount of protein in the incubation: CL_[…][μl/min/mg protein]=(ln 2/(half-life [min]*protein content [mg/ml]))*1′000.
The half-life (t1/2 INVITRO) values of selected compounds in the metabolic stability assay described above are listed in Table 15.

[2] = Metabolic stability with human hepatocytes; type: in vitro ADME; details: human hepatocyte suspension, 1 μM, scaled with well stirred model
Description: Assay for the Determination of Metabolic Stability with Human Hepatocytes
The metabolic degradation of the test compound is assayed in a human hepatocyte suspension. Human hepatocytes (typically cryopreserved) are incubated in an appropriate buffer system (e.g. Dulbecco's modified eagle medium plus 3.5 μg glucagon/500 mL, 2.5 mg insulin/500 mL and 3.75 mg/500 mL hydrocortison) containing 5% species serum. Following a (typically) […] preincubation in an incubator (37° C., 10% CO2), 5 μl of test compound solution (80 μM; from 2 mM stock solution in DMSO diluted 1:25 with medium) are added into 395 μl hepatocyte suspension (cell density in the range 0.25-5*10^6 cells/mL, typically 1*10^6 cells/mL; final concentration of test compound 1 μM, final DMSO concentration […]). The cells are incubated for six hours (incubator, orbital shaker) and samples (25 μl) are taken at 0, 0.5, 1, 2, 4 and 6 hours. Samples are transferred into acetonitrile and pelleted by centrifugation (5 min). The supernatant is transferred to a new 96-deepwell plate, evaporated under nitrogen and resuspended. The decline of parent compound is analyzed by LC-MS/MS.
The intrinsic clearance CL_[…] is calculated as follows: CL_[…]=Dose/AUC=(C0/CD)/(AUD+clast/k)*1′000/60 (C0: initial concentration in the incubation [μM], CD: cell density of vital cells [10^6 cells/mL], AUD: area under the data [μM*h], clast: concentration of last data point [μM], k: slope of the regression line for parent decline [h^−1])
The calculated in vitro hepatic intrinsic clearance can be scaled up to the intrinsic in vivo hepatic clearance and used to predict hepatic in vivo blood clearance (CL) by the use of a is liver model (well stirred model): CL_[…]_INVIVO [ml/min/kg]=(CL_[…] [μL/min/10^6 cells]* hepatocellularity[10^6 cells/g liver]*liver factor[g/kg bodyweight])/1′000 CL[ml/min/kg]=CL_[…]_INVIVO [ml/min/kg]*hepatic blood flow [ml/min/kg]/(CL_[…]_INVIVO [ml/min/kg]+hepatic blood flow [ml/min/kg]) Qh[%]=CL[ml/min/kg]/hepatic blood flow[ml/min/kg]) (Hepatocellularity, human: 120*10^6 cells/g liver; lver factor, human: 25.7 g/kg bodyweight; blood flow, human: 21 ml/(min*kg))
The predicted human hepatic in vivo blood clearance (CL) of selected compounds in the metabolic stability assay described above are listed in Table 16.

[3] = Drug transport across human CACO-2 cells; type: in vitro ADME
Description: Assay for Determination of Drug Transport Across Human CACO-2 Cells
The assay provides information on the potential of a compound to pass the cell membrane, on the extent of oral absorption as well as on whether the compound is actively transported by uptake and/or efflux transporters. For the measurement of permeability across polarized, confluent human cancer colon carcinoma cells 2 (Caco-2) cell monolayers grown on permeable filter supports are used as the in vitro absorption model. Apparent permeability coefficients (PE) of the compounds across the Caco-2 monolayers are measured (pH 7.2, 37° C.) in apical-to-basal (AB) (absorptive) and basal-to-apical (BA) (secretory) transport direction. AB permeability (PEAB) represents drug absorption from the intestine into the blood and BA permeability (PEBA) drug secretion from the blood back into the intestine via both passive permeability as well as active transport mechanisms mediated by efflux and uptake transporters that are expressed on the Caco-2 cells. The compounds are assigned to permeability/absorption classes by comparison of the AB permeabilities with the AB permeabilities of reference compounds with known in vitro permeability and oral absorption in the human. Identical or similar permeabilities in both transport directions indicate passive permeation, vectorial permeability points to additional active transport mechanisms. […] Active transport is concentration-dependently saturable.
Caco-2 cells (1−2*10^5 cells/cm^2 area) are seeded on filter inserts (Costar transwell polycarbonate or PET filters, […] pore size) and cultured (DMEM) for 10 to 25 days. Compounds are dissolved in appropriate solvent (like DMSO, 1-20 mM stock solutions). Stock solutions are diluted with HTP-4 buffer (128.13 mM NaCl, 5.36 mM KCl, 1 mM MgSO4, 1.8 mM CaCl2, 4.17 mM NaHCO3, 1.19 mM Na2HPO4×7H2O, 0.41 mM NaH2PO4×H2O, 15 mM HEPES, 20 mM glucose, pH 7.2) to prepare the transport solutions (typically […] compound, final DMSO <=0.5%). The transport solution (TL) is applied to the apical or basolateral donor side for measuring A-B or B-A permeability (3 filter replicates), respectively. The receiver side contains HTP-4 buffer supplemented with 2% BSA. Samples are collected at the start and end of experiment from the donor and at various time intervals for up to 2 hours also from the receiver side for concentration measurement by LC-MS/MS or scintillation counting. Sampled receiver volumes are is replaced with fresh receiver solution.
The apparent permeability coefficients (PEAB and PEBA) and efflux ratios (PEBA/PEAB) of selected compounds in the Caco-2 drug transport assay described above are listed in Table 17.

Aqueous solubility = type: physicochemical; details: McIlvaine buffer with 2.5% DMSO; McIlvaine buffer pH 6.8, 2.5% DMSO, 24 h shaking
Description: Assay for Determination of Aqueous Solubility
The aqueous solubility of a compound is determined by comparing the amount dissolved in aqueous buffer (containing 2.5% DMSO) to the amount dissolved in an acetonitrile/water (1/1) solution. Starting from a 10 mM DMSO stock solution, aliquots are diluted with acetonitrile/water (1/1) and Mcllvaine buffer pH 6.8, respectively. After 24 h of shaking, the solutions or suspensions are filtered and analyzed by LC-UV. The amount dissolved in buffer is compared to the amount dissolved in the acetonitrile/water (1/1) solution. Solubility is measured from 0.001 to 0.125 mg/ml at a DMSO concentration of 2.5%. If more than 90% of the compound is dissolved in buffer, the value is marked with “>”.

neutrophil elastase [4] = target: T1, neutrophil elastase (Homo sapiens, UniProt P08246); test: Human Neutrophil Elastase Assay; type: biochemical; set-up: purchased Calbiochem 324681; details: substrate MeOSuc-Ala-Ala-Pro-Val-AMC, pH 7.5, room temperature
T1 sequence (P08246 30-247 limits assumed): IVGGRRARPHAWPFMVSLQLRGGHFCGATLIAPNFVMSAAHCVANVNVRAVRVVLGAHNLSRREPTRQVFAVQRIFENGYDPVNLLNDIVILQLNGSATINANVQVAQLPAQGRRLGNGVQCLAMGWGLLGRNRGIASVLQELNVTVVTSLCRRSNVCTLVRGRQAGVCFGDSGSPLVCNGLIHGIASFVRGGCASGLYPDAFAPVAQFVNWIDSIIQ
Outline: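 Readout: AMC fluorescence (ex 380, em 460 nm) after 60 min room-temperature reaction with 250 nM MeOSuc-AAPV-AMC, following 15 min compound–enzyme preincubation. Buffer: Tris/NaCl pH 7.5, 0.01% BSA.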

neutrophil elastase [5] = target: T1, neutrophil elastase; test: Neutrophil elastase inhibitory activity in human plasma; type: biochemical; set-up: The stimulated blood is centrifuged to generate the neutrophil elastase enriched plasma; from tissue; host or cells: plasma from zymosan-stimulated citrated whole blood of healthy human donors; details: neutrophil elastase enriched human plasma (zymosan-stimulated blood), substrate MeOSuc-Ala-Ala-Pro-Val-AMC
Description: Assay for the Determination of Neutrophil Elastase Inhibitory Activity in Human Plasma
Citrated blood from human healthy donors is mixed with zymosan suspension and incubated at room temperature. This leads to the stimulation of neutrophils and the release of neutrophil elastase into the plasma. The stimulated blood is centrifuged to generate the neutrophil elastase enriched plasma.
Preparation of Zymosan Working Solution:
• single 45 ml blood sample is taken into a 50 ml tube containing citrate (3.13%, 5 mL) and the tube is gently inverted 4 times. • Immediately after blood sampling, zymosan working solution (5 mL) is added. • After the addition of zymosan working solution, the tubes are capped, mixed gently and incubated at 22° C. for 15 min on a shaker at 20 rpm. • Make 10 ml aliquots after the incubation time. • Centrifuge the 15 ml tubes at 800 g for […] at 4° C. in a Jouan centrifuge. • Harvest the plasma and make 1-5 ml aliquots. • Store the plasma at −80° C.
Various concentrations of the neutrophil elastase inhibitor are incubated with plasma. Subsequently, the enzyme activity is measured using the fluorogenic substrate MeOSuc-Ala-Ala-Pro-Val-AMC (Bachem Cat. No. 1-1270, substrate concentration: 250 μM, pH 7.5, 25 mM TRIS buffer, 250 mM NaCl) in analogous fashion as described for the human neutrophil assay. A dose response curve is generated to calculate the EC50 of the inhibitor. The analysis of the data is performed by the calculation of the percentage of fluorescence in the presence of the test compound compared to the fluorescence of the vehicle control after subtracting the background fluorescence: An inhibitor of the neutrophil elastase enzyme will give values between 100% control (no inhibition) and 0% control (complete inhibition). The human plasma shift of selected compounds can be calculated using the following equation: Human plasma shift=(EC50 in human plasma assay)/(IC50 in human neutrophil elastase assay) The EC50 values of selected compounds in the human plasma assay described above are listed in Table 14.

SMILES	t1/2 INVITRO [1]	CL (predicted human hepatic in vivo blood clearance) [2]	Papp A→B at 10 nM ([3]; Caco-2 monolayers, apical-to-basal, pH 7.2, 37° C., read-out: PEAB)	Papp B→A at 10 nM ([3]; Caco-2 monolayers, basal-to-apical, pH 7.2, 37° C., read-out: PEBA)	efflux ratio at 10 nM ([3]; pH 7.2, Caco-2, PEBA/PEAB)	solubility at 24 h (Aqueous solubility)	IC50 (neutrophil elastase [4])	EC50 (neutrophil elastase [5])
CS(=O)(=O)c1cc(C#N)ccc1[C@@H]1C2=C(CCCC2=O)N(c2cccc(C(F)(F)F)c2)C(=O)N1C(=O)NC1CCOCC1 [Example 75.16]	>2.17 h	0 mL/min/kg	–	–	–	–	–	–
CN(C)CCNC(=O)N1C(=O)N(c2cccc(C(F)(F)F)c2)C2=C(C(=O)CCC2)C1c1ccc(C#N)cc1 (stereo not drawn) [Example 39.8]	–	–	16.4 ×10⁻⁶ cm/s	80.7 ×10⁻⁶ cm/s	4.9	98 µg/mL (≈ 186 µM)	1.4 nM	6 nM
CS(=O)(=O)c1cc(C#N)ccc1C1C2=C(CCCC2=O)N(c2cccc(C(F)(F)F)c2)C(=O)N1CCCO (stereo not drawn) [Example 58.2]	>2.17 h	3 mL/min/kg	–	–	–	–	–	–
CC(C)(O)CNC(=O)N1C(=O)N(c2cccc(C(F)(F)F)c2)C2=C(C(=O)CCC2)C1c1ccc(C#N)cc1 (stereo not drawn) [Example 70.9]	>2.17 h	0 mL/min/kg	–	–	–	–	–	–
CS(=O)(=O)c1cc(C#N)ccc1[C@@H]1C2=C(CCCC2=O)N(c2cccc(C(F)(F)F)c2)C(=O)N1S(C)(=O)=O [Example 68, (S)-3-(Methylsulfonyl)-4-(3-(methylsulfonyl)-2,5-dioxo-1-(3-(trifluoromethyl)phenyl)-1,2,3,4,5,6,7,8-octahydroquinazolin-4-yl)benzonitrile]	–	0 mL/min/kg	–	–	–	–	< 1 nM	1 nM

Source: patent publication US9115093B2, “Substituted bicyclic dihydropyrimidinones and their use as inhibitors of neutrophil elastase activity” (Boehringer Ingelheim International GmbH, priority 2013, dated 2015)
